# Read-outs that look alike come from different tables or passages of the source.
# Experiments:
# [1] = system: Plasmodium berghei NK65 strain; test: in vivo 4-day suppressive test, intraperitoneal administration, mouse infected with malaria; conditions: 4 days
# Protocol: This test was carried out in accordance with 4-day suppressive test that is a general in vivo test for the activity of an anti-malaria compound. Rodent malaria protozoa (Plasmodium berghei NK65 strain) were used in this test. Infected blood was prepared by infection with intraperitoneal administration into ICR male mouse (5 weeks age; SPF) and passage culture (subculture) thereafter. Blood was drawn from the vein of a tail of the moue infected with malaria, and its infection ratio was determined. After it was confirmed that the infection ratio had been increased up to an appropriated level (10˜20%), the blood infected with malaria was drawn from the heart of the mouse. The infection ratio and number (cells/mL) of erythrocytes were determined. An uninfected mouse (ICR male, 5 weeks age) was then infected with an injection of the infected erythrocytes so diluted with PBS as to comprise the protozoa of […] per dose (0.2 mL) into the vein of its tail.
# A test sample was prepared by dissolving the test compounds according to the present invention into physiologic saline (Otsuka Pharmaceuticals Industries) to a predetermined concentration. In the case where the compound was insoluble in water, it was dissolved into DMSO or Tween 20 to prepare the test sample. A control group (no drug-administration group) was treated only with physiologic saline. […]
# One group consisted of five mice. The intraperitoneal administration of the test sample started after two hours from the infection with malaria and continued for successive 4 days with a 24-hour interval. After 24 hours from the last administration, blood was drawn from the tail of the infected mouse to prepare a thin-layer smear, and the number of the erythrocytes infected with the malaria protozoa under a microscope with respect to the control group and the test sample groups. Parasitemia, i.e., the infection ratio with the malaria protozoa, was obtained by calculating an average value of the medium three mice except the two mice showing a maximum or minimum inhibition level. A cure rate (suppression) was then calculated from the resulting parasitemia in accordance with the following equation.
# Cure rate: suppression (%)=(b−a)/b×100 • a: Infection ratio of the test sample group; and • b: Infection ratio of the control group.
# [2] = system: Trypanosoma cruzi (Tulahuen C2C4 strain); test: in vitro growth-inhibiting screening assay, protozoa of American trypanosomiasis; format: cell-based; conditions: Trypanosoma cruzi, TULAHUEN; in infected rat L6 cells; 96 h, CPRG/Nonidet; read-out: 50% growth-inhibiting concentration (nM) Trypanosoma cruzi
# Protocol: The test was done using a trypomastigote and an amastigote of the protozoa of Trypanosoma cruzi (Tulahuen C2C4 strain) present in the infected rat L6 cells. The L6 cells were cultured in RPMI-1640 medium supplemented with 1% of […] (200 mM) and 10% of fetal calf serum under CO2 concentration of 5%, at 37° C.
# A test sample was prepared by dissolving the test compounds according to the present invention and a positive control drug (benznidazole) in DMSO to a predetermined concentration. Culture medium containing the protozoa of 5×10^3 was added into each well of 96-well culture plate and cultured for 48 hours. After the medium was exchanged, the test sample comprising the predetermined amount of the test compound, and DMSO without the test compound were added into each well in duplicate.
# After incubation of the culture plate for 96 hours in an incubator, a growth-inhibiting activity was assayed as follows. CPRG/Nonidet (50 μL) was added to each well followed by a further 2˜6-hour culture. The culture plate was then attached to an absorption micro titer plate reader, the absorbance at 540 nm was detected to calculate an infection ratio of the protozoa with respect to a group treated with the test sample and a control group. A growth-inhibiting ratio was then calculated from the resulting infection ratio in accordance with the following equation to determine 50% growth-inhibiting concentration (EC50).
# (§1) Growth-inhibiting ratio (%)=[1−(b−a)/(c−a)]×100 • a: Initial infection ratio; • b: Infection ratio of the test sample group; and • c: Infection ratio of the control group.
# A selective toxicity coefficient, which is used as an index for the selective toxicity for the protozoa of American trypanosomiasis, was calculated by the following equation, and the pharmaceutical effect was determined.
# A selective toxicity coefficient=(EC50 value of the test sample for rat L6 cell)/(EC50 value of the test sample for the protozoa of American trypanosomiasis).
# [3] = system: Rat L6 cell (rat skeletal myoblast cell); test: in vitro growth-inhibiting assay of rat L6 cells; format: cell-based
# Protocol: Rat L6 cell (rat skeletal myoblast cell) was cultured in RPMI-1640 culture medium supplemented with 1% of L-glutamine (200 mM) and fetal calf serum (10%) under 5% CO2 concentration at 37° C. A test sample was prepared by dissolving the test compounds according to the present invention and a positive control drug in DMSO to a predetermined concentration. After pre-culture had been finished, the culture medium containing the cells in a logarithmic phase was placed into each well of a 96-well culture plate, and the test sample comprising the predetermined amount of the test compound, and DMSO without the test compound were added to the wells in duplicate.
# After incubation of the culture plate for 72 hours in an incubator, a growth-inhibiting activity was assayed as follows. Alamar Blue aqueous solution (10 μL) was added to each well followed by a further two-hour culture. The culture plate was then attached to a fluorescence micro titer plate reader (Spectramax Gemeni XS; U.S. Molecular Device Co.), and the intensity of fluorescence at 588 nm was detected with an excitation wave length of 536 nm. A residual ratio of L6 cells was calculated with respect to a group treated with the test sample and a control group. A growth-inhibiting ratio for L6 cells was then calculated from the resulting residual ratio in accordance with the following equation to determine 50% growth-inhibiting concentration (EC50).
# Growth-inhibiting ratio (%)=[1−(C−A)/(B−A)]×100 • A: Initial number of cells; • B: Number of the cells in the control after 3 days; and • C: Number of the cells treated with the test sample after 3 days Determination of Pharmaceutical effect for Chloroquine-Resistant Malaria
# [4] = system: Plasmodium Falciparum K1 strain; test: in vitro growth-inhibiting screening assay, chloroquine-resistant falciparum malaria; format: cell-based
# Protocol: Plasmodium Falciparum K1 strain was used as a chloroquine-resistant protozoa of falciparum malaria. RMI-1640 sterilized by filtration was supplemented with human serum of a final concentration of 5% to be used as a culture medium. The malaria protozoa were cultured under O2 concentration of 3%, CO2 concentration of 4%, N2 concentration of 93% at 37° C.
# A test sample was prepared by dissolving the test compounds according to the present invention and a positive control drug (chloroquine) in DMSO to a predetermined concentration. The erythrocytes infected with the cultured malaria protozoa were collected by centrifugation and so diluted with non-infected erythrocytes to have an initial infection ratio of 0.15%. The hematocrit value was then 2.5%. Culture mixture of the above malaria-infection culture medium (200 μL) was placed into each well of a 96-well culture plate, and the test sample comprising the predetermined amount of the test compound, and DMSO without the test compound were added to the wells in duplicate.
# After culture for 48 hours at 37° C., hypoxanthine labeled with radioactive tritium (^3H) of 0.5 μCi was added to each well. After the culture in the same conditions for further 24 hours, the sample was taken on a glass fiber filter and washed with distilled water. Intensity of radiation was measured by means of plate liquid scintillation counter (Wallac Co.), and an infection ratio of the protozoa of malaria was calculated with respect to a group treated with the test sample and the control. A growth-inhibiting ratio was then calculated from the resulting infection ratio in accordance with the following equation to determine 50% growth-inhibiting concentration (EC50).
# Growth-inhibiting ratio (%)=[1−(b−a)/(c−a)]×100 • a: Initial infection ratio; • b: Infection ratio of the test sample group; and • c: Infection ratio of the control group. In vitro Growth-Inhibiting Assay of Rat L6 Cells
# Anti-malaria effect of the samples was assessed by their EC50 values for the chloroquine-resistant protozoa of falciparum malaria and the rat L6 cell. A chemotherapy coefficient, which is used as an index for the selective toxicity for the chloroquine-resistant protozoa of falciparum malaria was calculated by the following equation, and the pharmaceutical effect was determined.
# Chemotherapy coefficient=(EC50 value of the test sample for rat L6 cell)/(EC50 value of the test sample for the chloroquine-resistant protozoa of falciparum malaria)
# [5] = system: Leishmania donovani (MHOM/ET/67/L82 strain); test: in vitro growth-inhibiting screening assay, protozoa of Leishmaniasis; format: cell-based; conditions: Leishmania donovani; amastigotes; 72 h, Alamar Blue; read-out: growth-inhibiting concentration (nM) Leishmania donovani
# Protocol: This test was done using the protozoa of Leishmania donovani (MHOM/ET/67/L82 strain). The protozoa were subcultured using Syrian Golden hamster and an amastigote was obtained therefrom. The amastigotes were cultured in SM medium supplemented with 10% of heat-treated fetal calf serum (pH 5.4) under CO2 concentration of 5%, at 37° C.
# A test sample was prepared by dissolving the test compounds according to the present invention and a positive control drug (Miltefosine) in DMSO to a predetermined concentration. Culture medium containing a predetermined number of the protozoa was added into each well of a 96-well culture plate, and the concentration of the amastigotes was measured by means of CASY cell analysis system (Dermany, Scharfe Co.). Test sample comprising the predetermined amount of the test compound, and DMSO without the test compound were added to the wells in duplicate.
# After incubation of the culture plate for 72 hours in an incubator, a growth-inhibiting activity was assayed as follows. Alamar Blue aqueous solution (10 μL) was added to each well followed by a further two-hour culture. The culture plate was then attached to a fluorescence micro titer plate reader (Spectramax Gemeni XS; U.S. Molecular device Co.), the intensity of fluorescence at 588 nm was detected with excitation wave length of 536 nm to calculate an infection ratio of the protozoa with respect to a group trated with the test sample and a control group. A growth-inhibiting ratio was then calculated from the resulting infection ratio in accordance with the following equation to determine 50% growth-inhibiting concentration (EC50).
# as §1
# A selective toxicity coefficient, which is used as an index for the selective toxicity for the protozoa of Leishmaniasis, was calculated by the following equation, and the pharmaceutical effect was determined.
# A selective toxicity coefficient=(EC50 value of the test sample for rat L6 cell)/(EC50 value of the test sample for the protozoa of Leishmaniasis).
# malaria = conditions: mice infected with malaria; 4-day successive treatment, peritoneal administration 5 mg/kg/day; cited from earlier work
# Plasmodium falciparum W2 = conditions: in vitro; cited from earlier work
# [6] = Table 3, 72 h, Alamar Blue, read-out: 50% growth-inhibiting concentration (nM) cytotoxicity L6
# [7] = chloroquine-resistant strain, 72 h culture, 3H-hypoxanthine, read-out: 50% growth-inhibiting concentration (nM) P. falciparum K1
compound,measurement,setting,value
CN(C)c1ccc2nc3ccc(=[N+](C)C)cc-3oc2c1.[O-][Cl+3]([O-])([O-])[O-] [Compound A-2],Parasitaemia suppression (%),[1]; 5 mg/kg/day intraperitoneal,45.9%
"O=C(Cn1ccnc1[N+](=O)[O-])NCc1ccccc1 [benznidazole, reference compound]",EC50,[2],870 nM
CC[N+](CC)=c1ccc2nc3ccc(N(C)C)cc3oc-2c1.[O-][Cl+3]([O-])([O-])[O-] [Compound A-5],Parasitaemia suppression (%),[1]; 5 mg/kg/day intraperitoneal,77.0%
C[N+](C)=c1ccc2nc3c(O)cc(N4CCN(CCO)CC4)cc3oc-2c1 [Compound A-15],EC50,[3]; [6],74600 nM
same,EC50,[4]; [7],191 nM
"CCCCCCCCCCCCCCCCOP(=O)([O-])OCC[N+](C)(C)C [Miltefosine, reference compound]",EC50,[5],280 nM
CN1CCN(c2cc(O)c3nc4ccc(=[N+](C)C)cc-4oc3c2)CC1.Cl.[Cl-] [Compound A-14],Parasitaemia suppression (%),[1]; 5 mg/kg/day intraperitoneal,17.4%
same,EC50,[3]; [6],86400 nM
same,EC50,[4]; [7],196 nM
CNc1ccc2nc3ccc(=[N+](C)C)cc-3sc2c1.[Cl-] [Azure B],Suppression(%),malaria,9.1%
same,EC50,Plasmodium falciparum W2,12.7 ± 7.36 nM
"CCN(C)c1ccc2nc3ccc(N(C)C)cc3[o+]c2c1.[O-][Cl+3]([O-])([O-])[O-] [Compound A-9, 3-ethylmethylamino-7-dimethylamino phenoxazinium perchlorate]",Cure rate (%),[1]; 5 mg/kg/day intraperitoneal,71.7%
CCOC(=O)N1CCN(c2cc(O)c3nc4ccc(=[N+](C)C)cc-4oc3c2)CC1.[Cl-] [Compound A-17],Parasitaemia suppression (%),[1]; 5 mg/kg/day intraperitoneal,38.6%
CC(=O)Oc1cc(N2CCN(C)CC2)cc2oc3cc(=[N+](C)C)ccc-3nc12.Cl.[Cl-] [Compound A-19],Parasitaemia suppression (%),[1]; 5 mg/kg/day intraperitoneal,21.4%
"CCN(CC)CCCC(C)Nc1ccnc2cc(Cl)ccc12 (stereo not shown) [Chloroquine, reference compound]",EC50,"[4]; Plasmodium falciparum, K1, read-out: 50% growth-inhibiting concentration (nM) P. falciparum K1",150 nM
"CN(C)c1ccc2nc3ccc(N4CCNCC4)cc3[o+]c2c1.Cl.[Cl-] [Compound A-11, 3-dimethylamino-7-(1-piperazino) phenoxazinium chloride mono-hydrochloride salt]",Parasitaemia suppression (%),[1]; 5 mg/kg/day intraperitoneal,54.8%
same,Parasitaemia suppression (%),"[1]; Table 5, 5.0 mg/kg/day intraperitoneal",54.8%
same,Parasitaemia suppression (%),"[1]; Table 5, 10 mg/kg/day intraperitoneal",78.5%
same,Parasitaemia suppression (%),"[1]; Table 5, 20 mg/kg/day intraperitoneal",98.1%
same,Parasitaemia suppression (%),"[1]; Table 5, 30 mg/kg/day intraperitoneal",>99.99%
same,EC50,[3],63800 nM
same,EC50,[4]; [7],27.5 nM
C[N+](C)=c1ccc2nc3c(C(=O)O)cc(O)c(O)c3oc-2c1.[Cl-] [Gallocyanine],Suppression(%),malaria,15.6%
same,EC50,Plasmodium falciparum W2,674 ± 159 nM
Cc1cc2nc3cc(C)c(N)cc3[n+](-c3ccccc3)c2cc1N.[Cl-] [Safranine O],Suppression(%),malaria,14.0%
same,EC50,Plasmodium falciparum W2,34.8 ± 17.2 nM
CN(C)c1ccc2nc3ccc(=[N+](C)C)cc-3sc2c1.[Cl-] [Methylene Blue],Suppression(%),malaria,15.9%
same,EC50,Plasmodium falciparum W2,3.99 ± 2.31 nM
